Measured values reported in patent US12215101B2, “Pro drugs of PDE10 compounds” (Merck Sharp & Dohme LLC, priority 2021, dated 2025).
Converted amounts (≈) assume the structure as drawn.

How the values were obtained:
[1] = Aqueous solubility (slurry in pH 7 buffer, UPLC); type: physicochemical; conditions: pH 7.0 phosphate buffer, amorphous material; for solubility: aqueous buffer, thermodynamic from solid, read-out: Aqu. Solubility
Procedure: Aqueous solubility of the compounds was measured by suspending, sonicating (30 minutes), and slurrying (2 hours, 1000 rpm) excess solid (typically 5-10 mg) in phosphate buffered saline at pH 7, or equivalent pH 7 buffer. The suspension was then sonicated again for 30 minutes and stirred again at 1000 rpm for at least 6-24 hours. Approximately 400 μL of sample was removed and placed into spin filters. Each sample was spun at 14K rpm for 10 minutes using a 0.45 μm PVDF spin filter. A portion of the filtrate was removed and diluted with 1:1 ACN:H2O. The resultant samples were analyzed using UPLC analysis. Retains of the solids were checked by XRPD to determine if the material was crystalline or amorphous. Solubility of Compound A was measured at 140 μg/mL at pH 7.4 in PBS buffer solution.

[2] = Plasma stability in frozen human plasma; type: in vitro ADME; conditions: 37° C., 10% CO2, read-out: T1/2 Human Plasma (converted)
Procedure: (§1) Plasma stability of the compounds 1-19 (1 μM) was evaluated in frozen monkey and human plasma at 37° C. in a 10% CO2 environment. The stability of the analyte was assessed by determining the percentage of drug loss over the course of 0, 0.25, 0.5, 1, and 3 hr. In addition, the appearance of Compound A was determined for the same time course. Percent of drug loss as based on ratio with internal standard. Analyte concentrations were measured by LC/MS/MS. Linear regression was performed with log transformed percent of average TO values and linear time values. The elimination rate constant (ke) was calculated from the slope of this regression line and the half-life (T1/2) calculated based on the elimination rate constant.

[3] = Plasma stability in frozen monkey plasma; type: in vitro ADME; conditions: 37° C., 10% CO2, read-out: T1/2 Monkey Plasma (converted)
Procedure: as §1

Compound	solubility [1]	half-life at 1 μM [2]	half-life at 1 μM [3]	Aqu. Solubility [1]
CCC(=O)OCOC(=O)N(Cc1nnc(C)s1)c1cc(OC[C@H]2C[C@@H]2c2ccc(C)cn2)nc(C)n1 [Compound 7, ({(2-Methvl-6-{[(1S,2S)-2-(5-methylpyridin-2-yl)cyclopropyl]methoxy}pyrimidin-4-yl)[(5-methyl-1,3,4-thiadiazol-2-yl)methyl|carbamoyl}oxy)methyl propanoate]	15 µg/mL (≈ 29.3 µM)	4.8 min	5.4 min	
Cc1ccc([C@H]2C[C@@H]2COc2cc(N(Cc3nnc(C)s3)C(=O)OCOC(=O)c3ccccn3)nc(C)n2)nc1 [Compound 9, ({(2-Methyl-6-{[(1S,2S)-2-(5-methylpyridin-2-yl)cyclopropyl]methoxy}pyrimidin-4-yl)[(5-methyl-1,3.4-thiadiazol-2-yl)methyl]carbamoyl}oxy)methyl pyridine-2-carboxylate]	0.058 µg/mL (≈ 0.103 µM)	7.2 min	6 min	
CCCCCOC(=O)N(Cc1nnc(C)s1)c1cc(OC[C@H]2C[C@@H]2c2ccc(C)cn2)nc(C)n1 [Compound 4, Pentyl ((5-methyl-1,3,4-thiadiazol-2-yl)methyl)(2-methyl-6-(((1S,2S)-2-(5-methylpyridin-2-yl)cyclopropyl)methoxy)pyrimidin-4-yl)carbamate]	0.008 µg/mL (≈ 0.0161 µM)	412 min	104 min	
Cc1ccc([C@H]2C[C@@H]2COc2cc(N(Cc3nnc(C)s3)C(=O)OCOC(=O)C(C)C)nc(C)n2)nc1 [Compound 17]	0.16 µg/mL (≈ 0.304 µM)	7.8 min	7.2 min	
CCC(CC)C(=O)OCOC(=O)N(Cc1nnc(C)s1)c1cc(OC[C@H]2C[C@@H]2c2ccc(C)cn2)nc(C)n1 [Compound 19, ({(2-Methyl-6-{[(1S,2S)-2-(5-methylpyridin-2-yl)cyclopropyl]methoxy}pyrimidin-4-yl)[(5-methyl-1,3,4-thiadiazol-2-yl)methyl]carbamoyl}oxy)methyl 2-ethylbutanoate]	0.03 µg/mL (≈ 0.0541 µM)	148 min	35.4 min	
Cc1ccc([C@H]2C[C@@H]2COc2cc(N(Cc3nnc(C)s3)C(=O)OCOC(=O)C3CCCCC3)nc(C)n2)nc1 [Compound 18, ({(2-Methyl-6-{[(1S,2S)-2-(5-methylpyridin-2-yl)cyclopropyl]methoxy}pyrimidin-4-yl)[(5-methyl-1,3,4-thiadiazol-2-yl)methyl]carbamoyl}oxy)methyl cyclohexanecarboxylate]	0.07 µg/mL (≈ 0.124 µM)	21 min	16.8 min	
Cc1ccc([C@H]2C[C@@H]2COc2cc(N(Cc3nnc(C)s3)C(=O)OCOC(=O)c3ccc(F)cc3)nc(C)n2)nc1 [Compound 11, ({(2-Methyl-6-{[(1S,2S)-2-(5-methylpyridin-2-yl)cyclopropyl]methoxy}pyrimidin-4-yl)[(5-methyl-1,3,4-thiadiazol-2-yl)methyl]carbamoyl}oxy)methyl 4-fluorobenzoate]	0.07 µg/mL (≈ 0.121 µM)	64.8 min	43.2 min	
Cc1ccc([C@H]2C[C@@H]2COc2cc(N(Cc3nnc(C)s3)C(=O)OCc3oc(=O)oc3C)nc(C)n2)nc1 [Compound 1, (5-Methyl-2-oxo-1,3-dioxol-4-yl)methyl ((5-methyl-1,3,4-thiadiazol-2-yl)methyl)(2-methyl-6-(((1S,2S)-2-(5-methylpyridin-2-yl)cyclopropyl)methoxy)pyrimidin-4-yl)carbamate]	2.3 µg/mL (≈ 4.27 µM)	3.6 min	6.6 min	
COc1cccc(C(=O)OCOC(=O)N(Cc2nnc(C)s2)c2cc(OC[C@H]3C[C@@H]3c3ccc(C)cn3)nc(C)n2)c1 [Compound 15, ({(2-Methyl-6-{[(1S,2S)-2-(5-methylpyridin-2-yl)cyclopropyl]methoxy}pyrimidin-4-yl)[(5-methyl-1,3,4-thiadiazol-2-yl)methyl]carbamoyl}oxy)methyl 3-methoxybenzoate]	0.12 µg/mL (≈ 0.203 µM)	198 min	67.2 min	
Cc1ccc([C@H]2C[C@@H]2COc2cc(N(Cc3nnc(C)s3)Sc3ccccc3)nc(C)n2)nc1 [Compound 2, N-((5-Methyl-1,3,4-thiadiazol-2-yl)methyl)-N-(2-methyl-6-(((1S,2S)-2-(5-methylpyridin-2-yl)cyclopropyl)methoxy)pyrimidin-4-yl)-S-phenylthiohydroxylamine]		17.4 min	4.8 min	BLQ
Cc1ccc([C@H]2C[C@@H]2COc2cc(N(Cc3nnc(C)s3)C(=O)OCOC(=O)c3cccnc3)nc(C)n2)nc1 [Compound 10, ({(2-Methyl-6-{[(1S,2S)-2-(5-methylpyridin-2-ylcyclopropyl]methoxy}pyrimidin-4-yl)|(5-methyl-1,3,4-thiadiadol-2-yl)methyl]carbamoyl}oxy)methyl pyridine-3-carboxylate]	0.05 µg/mL (≈ 0.089 µM)	55.8 min	30.6 min	
CCCCCC(=O)OCOC(=O)N(Cc1nnc(C)s1)c1cc(OC[C@H]2C[C@@H]2c2ccc(C)cn2)nc(C)n1 [Compound 6, ({(2-Methyl-6-{[(1S,2S)-2-(5-methylpyridin-2-yl)cyclopropyl]methoxylpyrimidin-4-yl)[(5-methyl-1,3,4-thiadiazol-2-yl)methyl]carbamoyl}oxy)methyl hexanoate]	0.02 µg/mL (≈ 0.0361 µM)	21 min	14.4 min	
Cc1ccc([C@H]2C[C@@H]2COc2cc(N(Cc3nnc(C)s3)C(=O)c3ccccc3)nc(C)n2)nc1 [Compound 3, N-((5-Methyl-1,3,4-thiadiazol-2-yl)methyl)-N-(2-methyl-6-(((1S,2S)-2-(5-methylpyridin-2-yl)cyclopropyl)methoxy)pyrimidin-4-yl)benzamide]	19 µg/mL (≈ 39 µM)	182 min	69 min	
COc1ccc(C(=O)OCOC(=O)N(Cc2nnc(C)s2)c2cc(OC[C@H]3C[C@@H]3c3ccc(C)cn3)nc(C)n2)cc1 [Compound 16, ({(2-Methyl-6-{[(1S,2S)-2-(5-methylpyridin-2-yl)cyclopropyl]methoxy}pyrimidin-4-yl)[(5-methyl-1,3,4-thiadiazol-2-yl)methyl]carbamoyl}oxy)methyl 4-methoxybenzoate]	0.16 µg/mL (≈ 0.271 µM)	227 min	100 min	
Cc1ccc([C@H]2C[C@@H]2COc2cc(N(Cc3nnc(C)s3)C(=O)OCOC(=O)c3ccccc3)nc(C)n2)nc1 [Compound 5, ((((5-Methyl-1,3,4-thiadiazol-2-yl)methyl)(2-methyl-6-(((1S,2S)-2-(5-methylpyridin-2-yl)cyclopropyl)methoxy)pyrimidin-4-yl)carbamoyl)oxy)methyl benzoate]	0.02 µg/mL (≈ 0.0357 µM)	104 min	78.6 min	
Cc1ccc([C@H]2C[C@@H]2COc2cc(N(Cc3nnc(C)s3)C(=O)OCOC(=O)c3ccncc3)nc(C)n2)nc1 [Compound 8, ({(2-Methyl-6-{[(1S,2S)-2-(5-methylpyridin-2-yl)cyclopropyl]methoxy}pyrimidin-4-yl)[(5-methyl-1,3,4-thiadiazol-2-yl)methyl]carbamoyl}oxy)methyl pyridine-4-carboxylate]	0.139 µg/mL (≈ 0.247 µM)	11.4 min	9.6 min	
COc1ccccc1C(=O)OCOC(=O)N(Cc1nnc(C)s1)c1cc(OC[C@H]2C[C@@H]2c2ccc(C)cn2)nc(C)n1 [Compound 14, ({(2-Methyl-6-{[(1S,2S)-2-(5-methylpyridin-2-yl)cyclopropyl]methoxy}pyrimidin-4-yl)[(5-methyl-1,3,4-thiadiazol-2-yl)methyl]carbamoyl}oxy)methyl 2-methoxybenzoate]	0.02 µg/mL (≈ 0.0339 µM)	126 min	54 min	
Cc1ccc([C@H]2C[C@@H]2COc2cc(N(Cc3nnc(C)s3)C(=O)OCOC(=O)c3ccccc3F)nc(C)n2)nc1 [Compound 13, ({(2-Methyl-6-{[(1S,2S)-2-(5-methylpyridin-2-yl)cyclopropyl]methoxy}pyrimidin-4-yl)[(5-methyl-1,3,4-thiadiazol-2-yl)methyl]carbamoyl}oxy)methyl 2-fluorobenzoate]	0.08 µg/mL (≈ 0.138 µM)	27 min	16.8 min	
